The structures appear in SMILES notation. Structures can show the parent of a compound that is named as a salt.

One experiment has as its system A431 cells (human epidermoid carcinoma). The experiment is described as follows: In vitro tumor cell proliferation assay (Cell Titer-Glo luminescent cell viability), A431. The format is cell-based. The note with it: A-431, 72 h, 72 hours of drug exposure, ATP luminescence readout, read-out: IC50, anti-proliferative activity (inhibition of cell proliferation). From the text: (§1) In vitro Tumor Cell Proliferation Assay
(§2) The tumor cell proliferation assay used to test the compounds of the present invention involves a readout called Cell Titer-Glow® Luminescent Cell Viability Assay developed by Promega® (Cunningham, B A “A Growing Issue: Cell Proliferation Assays, Modern kits ease quantification of cell growth” The Scientist 2001, 15(13), 26, and Crouch, S P et al., “The use of ATP bioluminescence as a measure of cell proliferation and cytotoxicity” Journal of Immunological Methods 1993, 160, 81-88), that measures inhibition of cell proliferation. Generation of a luminescent signal corresponds to the amount of ATP present, which is directly proportional to the number of metabolically active (proliferating) cells.
(§3) A431cells (human epidermoid carcinoma, ATCC […]) and BT474 (human breast carcinoma, ATCC […]) were plated at a density of 2.5×10^3 cells/well in 96 well black-clear bottom tissue culture plates in RPMI media with 10% Fetal Bovine Serum and incubated at 37° C. Twenty-four hours later, test compounds are added at a final concentration range from as high […] to as low 64 pM depend on the activities of the tested compounds in serial dilutions at a final DMSO concentration of 0.1%. Cells were incubated for 72 hours at 37° C. in complete growth media after addition of the test compound. After 72 hours of drug exposure, the plates were equilibrated to room temperature for approximately 30 min. Then, using a Promega Cell Titer Glo Luminescent® assay kit, lysis buffer containing 100 microliters of the enzyme luciferase and its substrate, luciferin mixture, was added to each well. The plates were mixed for 2 min on orbital shaker to ensure cell lysis and incubated for 10 min at room temperature to stabilize luminescence signal. The samples were read on VICTOR 2 using Luminescence protocol, and analyzed with Analyze5 software to generate IC50 values.
Background: ATP-based viability assays read luminescence as a measure of living cells.
In the case of `Fc1ccc(Nc2ncnc3sc4c(c23)CCc2nn(CCN3CCNCC3)cc2-4)cc1Cl` [Example 20, N-(3-chloro-4-fluorophenyl)-2-(2-piperazin-1-ylethyl)-4,5-dihydro-2H-pyrimido[5′,4′:4,5]thieno[2,3-e]indazol-6-amine], the IC50 is not above 5 µM. For `OC[C@@H](O)Cn1cc2c(n1)CCc1c-2sc2ncnc(Nc3ccc(F)c(Cl)c3)c12` [Example 43, (S)-3-[6-(3-Chloro-4-fluoro-phenylamino)-4,5-dihydro-10-thia-2,3,7,9-tetraaza-cyclopenta[a]fluoren-2-yl}-propane-1,2-diol], the IC50 is not above 5 µM. In the case of `CN1CCN(CCn2cc3c(n2)CCc2c-3sc3ncnc(Nc4cccc(Cl)c4)c23)CC1` [Example 47, N-(3-chlorophenyl)-2-[2-(4-methylpiperazin-1-yl)ethyl]-4,5-dihydro-2H-pyrimido[5′,4′:4,5]thieno[2,3-e]indazol-6-amine], the IC50 is not above 5 µM. For the molecule `Fc1cccc(COc2ccc(Nc3ncnc4sc5c(c34)CCc3c-5cnn3CCBr)cc2Cl)c1` [Example 81, 3-(2-bromoethyl)-N-{3-chloro-4-[(3-fluorobenzyl)oxy]phenyl}-4,5-dihydro-3H-pyrimido[5′,4′:4,5]thieno[2,3-e]indazol-6-amine], the IC50 is not above 50 µM. With `CN1CCN(CCn2cc3c(n2)CCc2c-3sc3ncnc(Nc4ccc(OCc5cscn5)c(Cl)c4)c23)CC1` [Example 347, N-[3-chloro-4-(1,3-thiazol-4-ylmethoxy)phenyl]-2-[2-(4-methylpiperazin-1-yl)ethyl]-4,5-dihydro-2H-pyrimido[5′,4′:4,5]thieno[2,3-e]indazol-6-amine bis(trifluoroacetate)], the IC50 was not above 50 µM. Turning to `CN1CCN(CCn2cc3c(n2)CCc2c-3sc3ncnc(Nc4ccc(Cc5cccnc5)cc4)c23)CC1` [Example 348, 2-[2-(4-methylpiperazin-1-yl)ethyl]-N-[4-(pyridin-3-ylmethyl)phenyl]-4,5-dihydro-2H-pyrimido[5′,4′:4,5]thieno[2,3-e]indazol-6-amine], the IC50 was not above 50 µM.

On to `OC[C@H](O)Cn1cc2c(n1)CCc1c-2sc2ncnc(Nc3ccc(OCc4ccccn4)c(Cl)c3)c12` [Example 350, 3-(6-{[3-chloro-4-(pyridin-2-ylmethoxy)phenyl]amino}-4,5-dihydro-2H-pyrimido[5′,4′:4,5]thieno[2,3-e]indazol-2-yl)propane-1,2-diol], for which the IC50 is not above 5 µM.

Consider `OC[C@@H](O)Cn1cc2c(n1)CCc1c-2sc2ncnc(Nc3ccc(OCc4ccccn4)c(Cl)c3)c12` [Example 351, (2S)-3-(6-{[3-chloro-4-(pyridin-2-ylmethoxy)phenyl]amino}-4,5-dihydro-2H-pyrimido[5′,4′:4,5]thieno[2,3-e]indazol-2-yl)propane-1,2-diol], for which the IC50 is not above 5 µM. For `Cc1cccc(COc2ccc(Nc3ncnc4sc5c(c34)CCc3nn(C[C@@H](O)CO)cc3-5)cc2Cl)n1` [Example 352, (2R)-3-[6-({3-chloro-4-[(6-methylpyridin-2-yl)methoxy]phenyl}amino)-4,5-dihydro-2H-pyrimido[5′,4′:4,5]thieno[2,3-e]indazol-2-yl]propane-1,2-diol], the IC50 was not above 50 µM. For the molecule `OC[C@H](O)Cn1cc2c(n1)CCc1c-2sc2ncnc(Nc3ccc4c(cnn4Cc4ccccc4)c3)c12` [Example 353, (2R)-3-{6-[(1-benzyl-1H-indazol-5-yl)amino]-4,5-dihydro-2H-pyrimido[5′,4′:4,5]thieno[2,3-e]indazol-2-yl}propane-1,2-diol], the IC50 is not above 5 µM. Regarding `OC[C@H](O)Cn1cc2c(n1)CCc1c-2sc2ncnc(Nc3ccc4c(cnn4Cc4cccc(F)c4)c3)c12` [Example 354, (2R)-3-(6-{[1-(3-fluorobenzyl)-1H-indazol-5-yl]amino}-4,5-dihydro-2H-pyrimido[5′,4′:4,5]thieno[2,3-e]indazol-2-yl)propane-1,2-diol], the IC50 was not above 5 µM.

For the molecule `OC[C@H](O)Cn1cc2c(n1)CCc1c-2sc2ncnc(Nc3ccc(OCc4ccccc4)c(Cl)c3)c12` [Example 355, (2R)-3-(6-{[4-(benzyloxy)-3-chlorophenyl]amino}-4,5-dihydro-2H-pyrimido[5′,4′:4,5]thieno[2,3-e]indazol-2-yl)propane-1,2-diol], the IC50 is not above 5 µM.

For `OC[C@@H](O)Cn1cc2c(n1)CCc1c-2sc2ncnc(Nc3ccc4c(cnn4Cc4cccc(F)c4)c3)c12` [Example 356, (2S)-3-(6-{[1-(3-fluorobenzyl)-1H-indazol-5-yl]amino}-4,5-dihydro-2H-pyrimido[5′,4′:4,5]thieno[2,3-e]indazol-2-yl)propane-1,2-diol], the IC50 is not above 5 µM. The same measure, in the same setting: then `OC[C@@H](O)Cn1cc2c(n1)CCc1c-2sc2ncnc(Nc3ccc(OCc4ccccc4)c(Cl)c3)c12` [Example 357, (2S)-3-(6-{[4-(benzyloxy)-3-chlorophenyl]amino}-4,5-dihydro-2H-pyrimido[5′,4′:4,5]thieno[2,3-e]indazol-2-yl)propane-1,2-diol], with not above 5 µM; and `OC[C@@H](O)Cn1cc2c(n1)CCc1c-2sc2ncnc(Nc3ccc4c(cnn4Cc4ccccc4)c3)c12` [Example 358, (2S)-3-{6-[(1-benzyl-1H-indazol-5-yl)amino]-4,5-dihydro-2H-pyrimido[5′,4′:4,5]thieno[2,3-e]indazol-2-yl}propane-1,2-diol], with not above 5 µM; and `Cc1cccc(COc2ccc(Nc3ncnc4sc5c(c34)CCc3nn(C[C@H](O)CO)cc3-5)cc2Cl)n1` [Example 359, (2S)-3-[6-({3-chloro-4-[(6-methylpyridin-2-yl)methoxy]phenyl}amino)-4,5-dihydro-2H-pyrimido[5′,4′:4,5]thieno[2,3-e]indazol-2-yl]propane-1,2-diol], with not above 50 µM.

Consider `OCC(CO)n1cc2c(n1)CCc1c-2sc2ncnc(Nc3ccc(OCc4cccc(F)c4)c(Cl)c3)c12` [Example 360, 2-[6-({3-chloro-4-[(3-fluorobenzyl)oxy]phenyl}amino)-4,5-dihydro-2H-pyrimido[5′,4′:4,5]thieno[2,3-e]indazol-2-yl]propane-1,3-diol], for which the IC50 was not above 5 µM.

With `OCC(CO)n1ncc2c1CCc1c-2sc2ncnc(Nc3ccc(OCc4cccc(F)c4)c(Cl)c3)c12` [Example 361, 2-[6-({3-chloro-4-[(3-fluorobenzyl)oxy]phenyl}amino)-4,5-dihydro-3H-pyrimido[5′,4′:4,5]thieno[2,3-e]indazol-3-yl)propane-1,3-diol], the IC50 was not above 50 µM. On to `OCC(CO)n1ncc2c1CCc1c-2sc2ncnc(Nc3ccc4c(cnn4Cc4cccc(F)c4)c3)c12` [Example 362, 2-(6-{[1-(3-fluorobenzyl)-1H-indazol-5-yl]-amino}-4,5-dihydro-3H-pyrimido[5′,4′:4,5]thieno[2,3-e]indazol-3-yl)propane-1,3-diol], for which the IC50 was not above 5 µM. For the molecule `OCC(CO)n1cc2c(n1)CCc1c-2sc2ncnc(Nc3ccc4c(cnn4Cc4cccc(F)c4)c3)c12` [Example 363, 2-(6-{[1-(3-fluorobenzyl)-1H-indazol-5-yl]amino}-4,5-dihydro-2H-pyrimido[5′,4′:4,5]thieno[2,3-e]indazol-2-yl)propane-1,3-diol], the IC50 is not above 5 µM.

Another experiment has as its system BT474 (human breast carcinoma). The experiment is described as follows: In vitro tumor cell proliferation assay (Cell Titer-Glo luminescent cell viability), BT474. The format is cell-based. The note with it: BT-474, 72 h, BT474 cells, 72 hours of drug exposure, ATP luminescence readout, read-out: IC50, anti-proliferative activity (inhibition of cell proliferation).
Source text: as §1, §2, §3
Consider `Fc1ccc(Nc2ncnc3sc4c(c23)CCc2nn(CCBr)cc2-4)cc1Cl` [Example 6, 2-(2-bromoethyl)-N-(3-chloro-4-fluorophenyl)-4,5-dihydro-2H-pyrimido[5′,4′:4,5]thieno[2,3-e]indazol-6-amine], for which the IC50 was not above 5 µM. Still for that read-out and setting: for `CN(C)[C@H]1CCN(C[C@@H](O)Cn2cc3c(n2)CCc2c-3sc3ncnc(Nc4ccc(OCc5cccc(F)c5)c(Cl)c4)c23)C1` [Example 153, (2R)-1-[6-({3-chloro-4-[(3-fluorobenzyl)oxy]phenyl}amino)-4,5-dihydro-2H-pyrimido[5′,4′:4,5]thieno[2,3-e]indazol-2-yl]-3-[(3S)-3-(dimethylamino)pyrrolidin-1-yl]propan-2-ol trilfluoroacetate (salt)] the value was not above 1 µM; for `O=C(CCl)N1CCC(Cn2cc3c(n2)CCc2c-3sc3ncnc(Nc4ccc(OCc5cccc(F)c5)c(Cl)c4)c23)CC1` [Example 233, 2-{[1-(chloroacetyl)piperidin-4-yl]methyl}-N-{3-chloro-4-[(3-fluorobenzyl)oxy]phenyl}-4,5-dihydro-2H-pyrimido[5′,4′:4,5]thieno[2,3-e]indazol-6-amine trifluoroacetate], not above 1 µM; for `CC(C)(C)OC(=O)N1CCC(CCn2cc3c(n2)CCc2c-3sc3ncnc(Nc4ccc(OCc5cccc(F)c5)c(Cl)c4)c23)CC1` [Example 246, tert-butyl 4-{2-[6-({3-chloro-4-[(3-fluorobenzyl)oxy]phenyl}amino)-4,5-dihydro-2H-pyrimido[5′,4′:4,5]thieno[2,3-e]indazol-2-yl]ethyl}piperidine-1-carboxylate], not above 5 µM.

Values taken from patent US8207172B2 (Bayer Intellectual Property GmbH, priority 2004, dated 2012).
